{"source": "paper PMC12677607", "about": "“Identification of a Pair of Linear or Cyclic Naturally Inspired Bifunctional Lipopeptide Antibiotics That Overcome Antimicrobial Resistance” (Advanced Science, 2025)", "key": {"[1]": {"tested_on": "Klebsiella pneumoniae CRKP HS11286", "experiment": "microbe, parasite or virus in culture", "assay_type": "cell-based", "conditions": "Figure S127a", "summary_of_the_method": "(§1)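 Growth inhibition read visually; MIC taken as lowest inhibitory concentration. LB medium; inocula from overnight cultures diluted 5000-fold, S. aureus 10000-fold. Peptide range 64 to 0.125 µg mL^−1 (2-fold, pre-mix), two independent determinations.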"}, "[2]": {"tested_on": "Klebsiella pneumoniae CRKP 5452", "experiment": "microbe, parasite or virus in culture", "assay_type": "cell-based", "conditions": "Figure S127a, wild type", "summary_of_the_method": "as §1"}, "[3]": {"tested_on": "Klebsiella pneumoniae NCTC 5056", "experiment": "microbe, parasite or virus in culture", "assay_type": "cell-based", "conditions": "Figure S127a, colistin-resistant strain", "summary_of_the_method": "as §1"}, "K. pneumoniae CRKP5452": {"tested_on": "K. pneumoniae CRKP5452", "experiment": "Resistance acquisition by serial passaging", "assay_type": "cell-based", "conditions": "K. pneumoniae CRKP5452, sub-MIC levels, daily passage for 21 days, n = 2", "experimental": "(§2) Overnight cultures S. aureus USA300 were diluted 10000‐fold in LB broth, and 100 µL of dilute cell suspension was added to 96‐well plates containing 100 µL serially diluted aquicidine C4, telomycin, and daptomycin (with 15 mM CaCl2). Overnight cultures K. pneumoniae CRKP5452 were diluted 5000‐fold in LB broth, and 100 µL of dilute cell suspension was added to 96‐well plates containing 100 µL serially diluted aquicidine L and colistin. After an incubation of 24 h at 37 °C, the MIC value was determined. […] The MIC value was recorded as described above, and the process was repeated daily for 21 days. Experiments were performed two independent times (n = 2)."}, "[4]": {"tested_on": "K. pneumoniae CRKP 5452 PhoQL348Q", "experiment": "MIC against colistin-resistant mutant", "assay_type": "cell-based", "conditions": "Figure S127a, colistin-resistant mutant from serial passaging", "experimental": "(§3) All MIC assays were performed two independent times (n = 2) in 96‐well plates using a broth micro‐dilution method. The lowest concentration of that inhibited visible microbial growth was recorded as the MIC value.\n(§4) For most of bacterial strains, overnight cultures were diluted 5000‐fold in LB broth. For E. faecium and S. aureus, overnight cultures were diluted 1000‐ and 10000‐fold in LB broth, respectively. 100 µL of diluted cells was mixed with 100 µL of LB broth containing each peptide ranging from 64 to 0.125 µg mL^−1 at 2‐fold serial dilutions.\nas §2\nSingle‐nucleotide polymorphisms (SNPs) for telomycin‐, daptomycin‐ or colistin‐resistant mutants were identified using SNIPPY by mapping DNBSEQ‐seq reads to the reference genome of S. aureus USA300 or K. pneumoniae CRKP5452."}, "K. pneumoniae 15580": {"tested_on": "K. pneumoniae 15580", "experiment": "MIC against colistin-resistant strain", "assay_type": "cell-based", "conditions": "Figure S127a", "experimental": "as §3, §4"}, "[5]": {"tested_on": "Streptococcus pyogenes ATCC 19615", "experiment": "microbe, parasite or virus in culture", "assay_type": "cell-based", "conditions": "Streptococcus pyogenes, ATCC19615, 16 h, read-out: MIC Streptococcus pyogenes ATCC 19615", "summary_of_the_method": "as §1"}, "[6]": {"tested_on": "Staphylococcus aureus ATCC 25923", "experiment": "microbe, parasite or virus in culture", "assay_type": "cell-based", "conditions": "Staphylococcus aureus, ATCC25923, 16 h, read-out: MIC Staphylococcus aureus ATCC 25923", "summary_of_the_method": "as §1"}, "[7]": {"tested_on": "Staphylococcus aureus ATCC 6538", "experiment": "microbe, parasite or virus in culture", "assay_type": "cell-based", "conditions": "Staphylococcus aureus, ATCC6538, 16 h, read-out: MIC Staphylococcus aureus ATCC 6538", "summary_of_the_method": "as §1"}, "[8]": {"tested_on": "Staphylococcus aureus USA300", "experiment": "microbe, parasite or virus in culture", "assay_type": "cell-based", "conditions": "Staphylococcus aureus, USA300, 16 h, read-out: MIC Staphylococcus aureus USA300", "summary_of_the_method": "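Broth microdilution in LB, run in two independent repeats. Overnight cultures were diluted 5000-fold, except S. aureus at 10000-fold, and mixed with peptide-containing LB (2-fold series, 64 to 0.125 µg mL^−1 before mixing). MIC is the lowest concentration that prevented visible growth.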"}, "Enterococcus faecalis 26": {"tested_on": "Enterococcus faecalis 26", "experiment": "microbe, parasite or virus in culture", "assay_type": "cell-based", "conditions": "Enterococcus faecalis, 26, 16 h, read-out: MIC Enterococcus faecalis 26", "summary_of_the_method": "as §1"}, "Enterococcus faecalis 28": {"tested_on": "Enterococcus faecalis 28", "experiment": "microbe, parasite or virus in culture", "assay_type": "cell-based", "conditions": "Enterococcus faecalis, 28, 16 h, read-out: MIC Enterococcus faecalis 28", "summary_of_the_method": "as §1"}, "[9]": {"tested_on": "Enterococcus faecalis ATCC 29212", "experiment": "microbe, parasite or virus in culture", "assay_type": "cell-based", "conditions": "Enterococcus faecalis, ATCC29212, 16 h, read-out: MIC Enterococcus faecalis ATCC 29212", "summary_of_the_method": "as §1"}, "[10]": {"tested_on": "Staphylococcus aureus Newman", "experiment": "microbe, parasite or virus in culture", "assay_type": "cell-based", "conditions": "Staphylococcus aureus, NEWMAN, 16 h, read-out: MIC Staphylococcus aureus Newman", "summary_of_the_method": "as §1"}, "[11]": {"tested_on": "Enterococcus faecium 35682", "experiment": "microbe, parasite or virus in culture", "assay_type": "cell-based", "conditions": "Enterococcus faecium, 35682, 16 h, read-out: MIC Enterococcus faecium 35682", "summary_of_the_method": "as §1"}, "[12]": {"tested_on": "Streptococcus mutans ATCC 25175", "experiment": "microbe, parasite or virus in culture", "assay_type": "cell-based", "conditions": "Streptococcus mutans, ATCC25175, 16 h, read-out: MIC Streptococcus mutans ATCC 25175", "summary_of_the_method": "as §1"}, "[13]": {"tested_on": "Mycobacterium smegmatis mc2155", "experiment": "microbe, parasite or virus in culture", "conditions": "Mycolicibacterium smegmatis, MC2155, read-out: MIC Mycobacterium smegmatis mc2155"}, "fungi": {"tested_on": "fungi", "conditions": "Figure S20, known peptide; cited from earlier work"}}, "data": [{"compound": "Colistin [reference compound]", "values": [{"measurement": "antibacterial activity (MIC) K. pneumoniae CRKP HS11286", "setting": "[1]", "result": 0.125, "unit": "µg/mL"}, {"measurement": "antibacterial activity (MIC) K. pneumoniae CRKP 5452", "setting": "[2]", "result": 0.125, "unit": "µg/mL"}, {"measurement": "antibacterial activity (MIC) K. pneumoniae NCTC 5056", "setting": "[3]", "result": 32, "unit": "µg/mL"}, {"measurement": "increase of MIC during serial passaging", "setting": "K. pneumoniae CRKP5452", "result": 13.3, "unit": "fold"}, {"measurement": "antibacterial activity (MIC) K. pneumoniae CRKP 5452 PhoQL348Q", "setting": "[4]", "result": 4, "unit": "µg/mL"}, {"measurement": "antibacterial activity (MIC) K. pneumoniae 15580", "setting": "K. pneumoniae 15580", "result": "> 64", "unit": "µg/mL"}]}, {"compound": "CN[C@H](CC(C)C)C(=O)N[C@H]1C(=O)N[C@@H](CC(N)=O)C(=O)N[C@H]2C(=O)N[C@H]3C(=O)N[C@H](C(=O)N[C@H](C(=O)O)c4cc(O)cc(O)c4-c4cc3ccc4O)[C@H](O)c3ccc(c(Cl)c3)Oc3cc2cc(c3O[C@@H]2O[C@H](CO)[C@@H](O)[C@H](O)[C@H]2O[C@H]2C[C@](C)(N)[C@H](O)[C@H](C)O2)Oc2ccc(cc2Cl)[C@H]1O", "note": "[Vancomycin, reference compound]", "values": [{"measurement": "MIC", "setting": "[5]", "result": 0.5, "unit": "µg/mL"}, {"measurement": "MIC", "setting": "[6]", "result": 1, "unit": "µg/mL"}, {"measurement": "MIC", "setting": "[7]", "result": 1, "unit": "µg/mL"}, {"measurement": "MIC", "setting": "[8]", "result": 1, "unit": "µg/mL"}, {"measurement": "MIC", "setting": "Enterococcus faecalis 26", "result": 1, "unit": "µg/mL"}, {"measurement": "MIC", "setting": "Enterococcus faecalis 28", "result": "> 64", "unit": "µg/mL"}, {"measurement": "MIC", "setting": "[9]", "result": 2, "unit": "µg/mL"}, {"measurement": "MIC", "setting": "[10]", "result": 0.5, "unit": "µg/mL"}, {"measurement": "MIC", "setting": "[11]", "result": "> 64", "unit": "µg/mL"}, {"measurement": "MIC", "setting": "[12]", "result": 2, "unit": "µg/mL"}, {"measurement": "MIC", "setting": "[13]", "result": "> 64", "unit": "µg/mL"}]}, {"compound": "Keanumycin A", "values": [{"measurement": "anti-fungal activity", "setting": "fungi", "result": "Pot ent anti-fungal activity"}]}]}
